Test results as given in patent publication EP2208725A1, “Novel specific inhibitors of ubiquitin specific protease 7, the pharmaceutical compositions thereof and their therapeutic applications” (Hybrigenics S.A., priority 2009, dated 2010).

Biological target: T1, USP8 (Homo sapiens, UniProt P40818)
T1 construct: His (from pFastBac-HT vector); made in house; host or cells: Insect cells (Sf9 or High Five), baculovirus
T1 sequence (P40818 1-1118): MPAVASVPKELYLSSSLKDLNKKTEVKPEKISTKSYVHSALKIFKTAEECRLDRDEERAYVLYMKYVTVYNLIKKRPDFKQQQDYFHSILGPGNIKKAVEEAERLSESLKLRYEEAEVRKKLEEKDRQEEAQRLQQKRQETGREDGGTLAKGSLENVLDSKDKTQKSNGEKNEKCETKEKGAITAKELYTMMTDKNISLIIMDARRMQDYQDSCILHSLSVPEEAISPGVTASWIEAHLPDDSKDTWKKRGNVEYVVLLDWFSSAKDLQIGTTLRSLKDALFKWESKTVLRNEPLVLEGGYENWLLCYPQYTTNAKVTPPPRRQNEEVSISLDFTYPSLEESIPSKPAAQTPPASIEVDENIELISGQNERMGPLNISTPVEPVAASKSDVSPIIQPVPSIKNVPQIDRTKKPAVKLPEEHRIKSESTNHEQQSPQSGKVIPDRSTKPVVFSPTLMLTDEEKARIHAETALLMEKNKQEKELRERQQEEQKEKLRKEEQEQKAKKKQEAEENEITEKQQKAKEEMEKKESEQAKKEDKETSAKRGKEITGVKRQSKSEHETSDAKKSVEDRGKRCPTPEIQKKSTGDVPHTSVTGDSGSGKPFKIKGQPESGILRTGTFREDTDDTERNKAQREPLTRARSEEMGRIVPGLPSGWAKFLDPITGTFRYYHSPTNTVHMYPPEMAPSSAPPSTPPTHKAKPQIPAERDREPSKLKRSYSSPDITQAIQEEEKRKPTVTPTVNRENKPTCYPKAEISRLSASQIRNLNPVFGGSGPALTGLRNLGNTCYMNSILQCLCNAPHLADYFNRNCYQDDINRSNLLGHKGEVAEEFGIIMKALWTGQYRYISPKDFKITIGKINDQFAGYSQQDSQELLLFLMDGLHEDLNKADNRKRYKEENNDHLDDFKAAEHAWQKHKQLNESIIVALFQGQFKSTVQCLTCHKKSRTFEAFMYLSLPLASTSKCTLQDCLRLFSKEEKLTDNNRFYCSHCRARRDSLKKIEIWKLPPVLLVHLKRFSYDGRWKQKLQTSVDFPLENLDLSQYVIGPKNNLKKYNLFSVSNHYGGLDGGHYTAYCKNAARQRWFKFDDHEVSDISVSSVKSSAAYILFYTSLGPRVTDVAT
Assay: USP8 activity assay (Ub-AMC)
Assay type: biochemical
Settings: 400 nM Ub-AMC, 1.36 nM enzyme; compounds tested from 200 µM to 91 nM; unit inferred; read-out: Inhibition of cysteine protease activities: USP8
Description: The cDNA encoding USP8 was obtained by PCR amplification from placenta mRNA. USP8 cDNA was subcloned by PCR into a baculovirus expression vector (pFastBac-HT; Invitrogen). A cDNA encoding a mutated USP8 was generated by mutagenic PCR. The corresponding protein encodes a cysteine to alanine substitution at residue 786. The sequences were ascertained by sequencing of the entire open reading frame. Bacmids encoding […] were generated following DH10bac transposition. The corresponding bacmids were transfected into insect cells (Sf9). Viruses were recovered from culture supernatant and amplified twice. Insect cells (Sf9 or High Five; Invitrogen) were infected for 72 hours. Total cell lysates were harvested and lyzed in lysis buffer (Tris HCl 50 mM pH7.6; 0.75 % NP40; 500 mM NaCl; 10 % glycerol; 1 mM DTT; 10 mM imidazole; Protease Inhibitor Cocktail; AEBSF 20 µg.ml^-1; Aprotinin 10 µg.ml^-1). Proteins were affinity purified on metal affinity resins (Talon Metal affinity resin; BD Biosciences). Bound materials were extensively washed in wash buffer (50 mM Sodium Phosphate pH 7.0; 300 mM NaCl; 10 mM imidazole; 0.5% Triton X-1 00; 10% glycerol) and eluted from the resin in 250 mM imidazole-containing wash buffer. Proteins were dialyzed in dialysis buffer (Tris HCl pH 7.6 20 mM; NaCl 200 mM; DTT 1 mM; EDTA 1 mM; 10% Glycerol). Proteins purifications were analyzed on 4-12% NuPAGE (Invitrogen).
USP8 was diluted in USP buffer (50 mM Tris HCl; 0.5 mM EDTA; 5 mM DTT; 0.01% Triton X-100; Bovine Serum Albumin 0.05 mg.ml^-1 pH8.8). Compounds stocks (100 mM) were stored at -20°C in DMSO. Compounds were tested at different concentrations: from 200 µM to 91 nM.
Reactions were performed as duplicates in Black LJL 96 well plates (HE microplates; Molecular Devices; 20 µl final reaction volume). The substrate concentration for USP8 was 400 nM Ub-AMC (Boston Biochem). The concentration of the enzyme (USP8) in specificity assays was 1.36 nM. The concentrations were determined in order to perform specificity assays under initial velocities at fixed substrate concentration. Compounds were pre-incubated with enzymes for 30 minutes at 25°C. Reactions were initiated by addition of substrate to the plates containing the enzymes (+/- compounds) diluted in assay buffer. Reactions were incubated for 60 minutes at 37°C. Reactions were stopped by adding acetic acid (100 mM final). Readings were performed on a Pherastar Fluorescent Reader (BMG). λ Emission 380 nm : λ Excitation = 460 nm. Data (mean values +/- standard deviation) were analyzed as % of control (no compound) and plotted as percentage versus the Log of the compound concentration using GraphPad (Prism). Data were fitted to a sigmoidal model (variable slope).

Row | SMILES | IC50 [µM]
1 | CC(=O)C1=C(O)C(=O)N(CCc2ccc(Cl)cc2)C1c1ccc(Br)cc1 (stereo not shown) [Example 25, 4-acetyl-5-(4-bromo-phenyl)-1-[2-(4-chloro-phenyl)-ethyl]-3-hydroxy-1,5-dihydro-pyrrol-2-one] | > 200
2 | CC(=O)C1=C(O)C(=O)N(CCc2ccc(Br)cc2)C1c1ccc(Br)cc1 (stereo not shown) [Example 26, 4-acetyl-5-(4-bromo-phenyl)-1-[2-(4-bromo-phenyl)-ethyl]-3-hydroxy-1,5-dihydro-pyrrol-2-one] | > 200
3 | CC(=O)C1=C(O)C(=O)N(CCc2ccc(Cl)c(Cl)c2)C1c1ccc(Br)cc1 (stereo not shown) [Example 28, 4-acetyl-5-(4-bromo-phenyl)-1-[2-(3,4-dichloro-phenyl)-ethyl]-3-hydroxy-1,5-dihydro-pyrrol-2-one] | > 200
4 | COc1cccc(CCN2C(=O)C(O)=C(C(C)=O)C2c2ccc(Br)cc2)c1 (stereo not shown) [Example 30, 4-acetyl-5-(4-bromo-phenyl)-3-hydroxy-1-[2-(3-methoxyphenyl)-ethyl]-1,5-dihydro-pyrrol-2-one] | > 200
5 | COc1ccc(CCN2C(=O)C(O)=C(C(C)=O)C2c2ccc(Br)cc2)cc1 (stereo not shown) [Example 32, 4-acetyl-5-(4-bromo-phenyl)-3-hydroxy-1-[2-(4-methoxyphenyl)-ethyl]-1,5-dihydro-pyrrol-2-one] | > 200
6 | CC(=O)C1=C(O)C(=O)N(CCc2ccc(F)cc2)C1c1ccc(Br)cc1 (stereo not shown) [Example 33, 4-acetyl-5-(4-bromo-phenyl)-3-hydroxy-1-[2-(4-fluorophenyl)-ethyl]-1,5-dihydro-pyrrol-2-one] | > 200
7 | CCOc1ccc(CCN2C(=O)C(O)=C(C(C)=O)C2c2ccc(Br)cc2)cc1 (stereo not shown) [Example 34, 4-acetyl-5-(4-bromo-phenyl)-3-hydroxy-1-[2-(4-ethoxy-phenyl)-ethyl]-1,5-dihydro-pyrrol-2-one] | > 200
8 | CC(=O)C1=C(O)C(=O)N(CCc2ccccc2)C1c1ccc2c(c1)OCO2 (stereo not shown) [Example 37, 4-acetyl-5-benzo[1,3]dioxol-5-yl-3-hydroxy-1-phenethyl-1,5-dihydro-pyrrol-2-one] | > 200
9 | CC(=O)C1=C(O)C(=O)N(CCc2ccccc2)C1c1ccc(Br)c(Br)c1 (stereo not shown) [Example 41, 4-acetyl-5-(3,4-dibromo-phenyl)-3-hydroxy-1-phenethyl-1,5-dihydro-pyrrol-2-one] | > 200
10 | CC(=O)C1=C(O)C(=O)N(CCc2ccccc2)C1c1cccnc1Cl (stereo not shown) [Example 42, 4-acetyl-5-(2-chloro-pyridin-3-yl)-3-hydroxy-1-phenethyl-1,5-dihydro-pyrrol-2-one] | > 200
11 | CC(=O)C1=C(O)C(=O)N(CCc2ccc(Br)cc2)C1c1ccc(Cl)cc1 (stereo not shown) [Example 45, 4-Acetyl-5-(4-chlorophenyl)-1-[2-(4-bromophenyl)-ethyl]-3-hydroxy-1,5-dihydro-pyrrol-2-one] | > 200
12 | CC(=O)C1=C(O)C(=O)N(CCc2ccc(Cl)cc2)C1c1ccc(Cl)cc1 (stereo not shown) [Example 46, 4-Acetyl-5-(4-chlorophenyl)-1-[2-(4-chlorophenyl)-ethyl]-3-hydroxy-1,5-dihydro-pyrrol-2-one] | > 200
13 | CC(=O)C1=C(O)C(=O)N(CCc2ccc(Cl)cc2Cl)C1c1ccc(Br)cc1 (stereo not shown) [Example 47, 4-Acetyl-5-(4-bromophenyl)-1-[2-(2,4-dichlorophenyl)-ethyl]-3-hydroxy-1,5-dihydro-pyrrol-2-one] | > 200
